Here are results for four molecules from article PMC2946321 (Bioorganic & medicinal chemistry, 2010).

Assay [1] addresses T1, human D2(long) (Homo sapiens, UniProt P14416). In words: Competitive radioligand binding, 125I-IABN, D2 dopamine receptors.
The target in assay [2] is T1, human D2(long). In words: Forskolin-dependent whole cell adenylyl cyclase inhibition assay. The class given is cell-based. The following applies: for effect on quinpirole inhibition of adenylyl cyclase: 10 nM test drug in presence of 10 nM quinpirole; for inhibition of forskolin-dependent cAMP accumulation: 10 nM, human D2long in HEK 293 cells, n = 4; for intrinsic efficacy category at D2 dopamine receptors: based on adenylyl cyclase assay.

Assay [3] deals with sigma-1 (σ1) receptors (Cavia porcellus, UniProt Q60492). In words: Sigma-1 receptor binding, [3H]. On the set-up: species or system guinea pig. The settings on record: read-out: Ki σ1.
The target of assay [4] is human D3 (Homo sapiens, UniProt P35462). In words: Competitive radioligand binding, 125I-IABN, D3 dopamine receptors. The following applies: read-out: Ki D3.
The target of assay [5] is T2, sigma-2 (σ2) receptors (Rattus norvegicus, UniProt Q5U3Y7).
T2 sequence (Q5U3Y7 1-176): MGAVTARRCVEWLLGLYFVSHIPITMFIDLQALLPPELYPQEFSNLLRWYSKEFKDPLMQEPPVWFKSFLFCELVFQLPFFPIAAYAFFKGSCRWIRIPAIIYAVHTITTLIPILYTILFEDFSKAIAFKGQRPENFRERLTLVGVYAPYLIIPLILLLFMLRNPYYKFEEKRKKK
In words: Sigma-2 receptor binding, rat liver membranes. The settings on record: read-out: Ki σ2.

By Ki is commonly meant a dissociation constant, usually derived from enzyme kinetics or from competition with a known ligand.

T1 sequence (P14416 whole entry): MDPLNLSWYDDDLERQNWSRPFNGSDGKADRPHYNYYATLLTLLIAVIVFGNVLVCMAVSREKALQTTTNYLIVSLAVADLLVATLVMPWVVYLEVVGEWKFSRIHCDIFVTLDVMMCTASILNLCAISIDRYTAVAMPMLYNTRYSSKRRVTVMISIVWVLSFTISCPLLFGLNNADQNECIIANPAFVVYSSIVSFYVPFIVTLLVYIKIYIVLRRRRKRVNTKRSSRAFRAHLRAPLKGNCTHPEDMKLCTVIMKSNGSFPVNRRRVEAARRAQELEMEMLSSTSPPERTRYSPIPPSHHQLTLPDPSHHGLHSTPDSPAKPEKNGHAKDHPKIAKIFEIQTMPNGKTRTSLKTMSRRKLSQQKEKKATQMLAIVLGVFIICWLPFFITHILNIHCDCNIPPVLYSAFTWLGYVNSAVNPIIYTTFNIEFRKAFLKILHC
human D3, sequence (P35462 whole entry): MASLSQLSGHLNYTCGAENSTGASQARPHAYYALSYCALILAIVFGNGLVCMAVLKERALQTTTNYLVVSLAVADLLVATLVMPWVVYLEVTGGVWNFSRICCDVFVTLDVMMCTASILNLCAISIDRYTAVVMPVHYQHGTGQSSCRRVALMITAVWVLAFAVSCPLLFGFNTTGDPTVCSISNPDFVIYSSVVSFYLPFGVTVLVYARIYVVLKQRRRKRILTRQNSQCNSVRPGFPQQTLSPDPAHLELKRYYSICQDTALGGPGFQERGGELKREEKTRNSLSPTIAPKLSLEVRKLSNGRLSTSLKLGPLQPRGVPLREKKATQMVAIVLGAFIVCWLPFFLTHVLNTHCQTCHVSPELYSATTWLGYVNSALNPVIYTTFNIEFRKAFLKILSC
sigma-1 (σ1) receptors, sequence (Q60492 whole entry): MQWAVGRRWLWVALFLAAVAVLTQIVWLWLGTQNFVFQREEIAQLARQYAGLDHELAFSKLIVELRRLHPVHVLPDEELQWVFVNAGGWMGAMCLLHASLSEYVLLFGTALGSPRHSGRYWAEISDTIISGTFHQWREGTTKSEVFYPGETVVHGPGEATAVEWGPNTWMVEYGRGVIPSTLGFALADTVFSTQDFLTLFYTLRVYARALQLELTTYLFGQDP

As to `CN1CN(c2ccccc2)C2(CCN(Cc3coc4ccccc34)CC2)C1=O.O=C(O)C(=O)O` [Compound 25, 8-(Benzofuran-3-ylmethyl)-3-methyl-1-phenyl-1,3,8-triazaspiro[4.5]decan-4-one oxalate], the “D3:D2 (Ki for D3 receptors/Ki for D2 receptors)” value in assay [1] was 0.3.

Consider `COc1cccc2[nH]cc(CN3CCC(O)(c4ccc(I)cc4)CC3)c12.O=C(O)C(=O)O` [Compound 6, 4-(4-Iodophenyl)-1-((4-methoxy-1H-indol-3-yl)methyl)piperidin-4-ol oxalate], for which, in assay [2], the “effect on quinpirole inhibition of adenylyl cyclase” value is on record as “able to attenuate the effect of quinpirole”, the “inhibition of forskolin-dependent cAMP accumulation” value is listed as “no appreciable increase or decrease” and the “intrinsic efficacy category at D2 dopamine receptors” value is “neutral antagonists”.

Take `COc1ccc2[nH]cc(CN3CCC(O)(c4ccc(I)cc4)CC3)c2c1.O=C(O)C(=O)O` [Compound 7, 4-(4-Iodophenyl)-1-((5-methoxy-1H-indol-3-yl)methyl)piperidin-4-ol oxalate]: in assay [2], the “effect on quinpirole inhibition of adenylyl cyclase” value was “able to attenuate the effect of quinpirole”, the “inhibition of forskolin-dependent cAMP accumulation” value is “no appreciable increase or decrease” and the “intrinsic efficacy category at D2 dopamine receptors” value is listed as “neutral antagonists”.

Consider “1-(Benzo[b]thiophen-2-ylmethyl)-4-(4-bromophenyl)piperidin-4-ol oxalate [Compound 20]”, for which the “D3:D2 (Ki for D3 receptors/Ki for D2 receptors)” value in assay [1] was determined as 3.0. In addition, the Ki in assay [1] (read-out: Ki D2) was 46.8 ± 3 nM; in assay [3], 2.13 ± 0.44 nM; in assay [4] it was 142 ± 27 nM; in assay [5] it was 1960 ± 177 nM.
